From publication PMC6269938, “Natural Aristolactams and Aporphine Alkaloids as Inhibitors of CDK1/Cyclin B and DYRK1A” (Molecules, 2013)
“Also recorded” adds a separate entry of the source. Like-named read-outs stand apart in the source and are kept apart here.

What was measured:
CDK1/Cyclin B = CDK1/Cyclin B kinase inhibition assay; format: biochemical, starfish (Marthasterias glacialis)
Experimental: (§1) Values were background subtracted, and activities were calculated as pmoles of phosphate incorporated during a 10 min incubation. […] Controls were performed with appropriate dilutions of DMSO.
CDK1/Cyclin B was extracted in homogenisation buffer from M phase starfish (Marthasterias glacialis) oocytes and purified by affinity chromatography on p9^CKShs1-Sepharose beads, from which it was eluted with free p9^CKShs1 as previously described. […] After a 10 min incubation at 30 °C, 25 µL aliquots of supernatant were spotted onto P81 phosphocellulose paper and treated as described above.

DYRK1A = DYRK1A (Rattus norvegicus, UniProt Q63470); assay: DYRK1A kinase inhibition assay; format: biochemical; conditions: for IC50 / DYRK1A (IC50 in μM): mean of triplicates, variation max 20%, ATP 15 µM, 30 °C; for DYRK1A inhibition at 30 µM, in words: concentration of 30 µM
Experimental: as §1
DYRK1A (rat, recombinant, expressed in E. coli as a GST fusion protein) was purified by affinity chromatography on glutathione-agarose and assayed as described.

CDK2 = tested on: CDK2; design: method as in PMID 20097074, PMID 20097066; conditions: previous studies; cited from earlier work
[1] = tested on: polo-box domain of Polo-like kinase 1; design: method as in PMID 19801998; conditions: cited from earlier work
Aurora 2 kinase = target: Aurora 2 kinase; design: method as in PMID 20097074, PMID 20097066; conditions: previous studies; cited from earlier work
CDK4 = tested on: CDK4; design: method as in PMID 20097074, PMID 20097066; conditions: previous studies; cited from earlier work
cancer cell = tested on: cancer cell; design: method as in PMID 19801998; conditions: cited from earlier work
human colon cancer cells = tested on: human colon cancer cells; design: method as in doi:10.1016/j.procbio.2012.05.018; conditions: cited from earlier work
human lung cancer cells = tested on: human lung cancer cells; design: method as in PMID 15473647; conditions: concentration of 20 μM; cited from earlier work
[2] = mean of triplicates, variation max 20%, ATP 15 µM, histone H1, 30 °C

| Structure (SMILES) | CDK1/Cyclin B inhibition at 30 µM, in words (CDK1/Cyclin B; concentration of 30 µM) | IC50 (CDK1/Cyclin B; [2]) [µM] | IC50 (DYRK1A) [µM] | DYRK1A inhibition at 30 µM, in words (DYRK1A) | also measured |
| --- | --- | --- | --- | --- | --- |
| COc1cc2c3c(c1OC)-c1ccccc1CC3NCC2 (single isomer, unassigned; (+)) [Compound 15, (+)-N-nornuciferine] | unable to inhibit | > 30 | 4.2 |  | CDK1/Cyclin B inhibition at 30 µM, in words (CDK1/Cyclin B; concentration of 30 µM, listed as N-nornuciferine (15)): did not inhibit |
| COc1c2c(cc3c1-c1c4c(cc5c1C(C3)NCC5)OCO4)OCO2 (single isomer, unassigned; (+)) [Compound 12, (+)-11-methoxynorneolistine] |  |  |  |  | CDK1/Cyclin B inhibition at 30 µM, in words (CDK1/Cyclin B): did not inhibit; also recorded: unable to inhibit; IC50 (CDK1/Cyclin B): > 30 µM |
| COc1cc2ccnc3c2c(c1OC)-c1ccccc1C3=O [Compound 13, lysicamine] | unable to inhibit | > 30 | 2.4 |  | CDK1/Cyclin B inhibition at 30 µM, in words (CDK1/Cyclin B; concentration of 30 µM, listed as lysicamine (13)): did not inhibit |
| COc1c2c3c(c(OC)c1OC)-c1ccccc1CC3NCC2 (single isomer, unassigned; (-)) [Compound 14, (−)-O-methylisopiline] | inactive | > 30 | > 30 | inactive |  |
| COc1cc2c(cc1O)CC1NCCc3cc4c(c-2c31)OCO4 (single isomer, unassigned; (+)) [Compound 11, (+)-actinodaphnine] | inactive | > 30 | > 30 | inactive |  |
| COc1c(O)cc2c3c(cc4ccccc4c13)NC2=O [Compound 1, aristolactam AII] | inactive | > 30 |  |  |  |
| COc1c(O)cc2c3c(cc4ccc(O)cc4c13)NC2=O [Compound 4, aristolactam AIIIA] |  | 0.2 | 0.08 |  | IC50 (CDK2): 0.14 µM; ligand targeting the polo-box domain of Polo-like kinase 1 [1]: new ligand; IC50 (Aurora 2 kinase): 2.14 µM; IC50 (CDK4): 1.42 µM; DYRK1A (IC50 in μM) (DYRK1A): submicromolar; cancer cell proliferation, mitotic arrest at G2/M phase, apoptosis (cancer cell): could inhibit cancer cell proliferation |
| O=C1c2ccccc2-c2c3c(cc4ccnc1c24)OCO3 [Compound 8, liriodenine] | unable to inhibit | > 30 | 3.1 |  | growth of human colon cancer cells, G1/S cell cycle arrest (human colon cancer cells): inhibited the growth; apoptosis induction by inhibiting CDK1/Cyclin B kinase activity, G2/M cell cycle arrest (human lung cancer cells): induced apoptosis; CDK1/Cyclin B inhibition at 30 µM, in words (CDK1/Cyclin B; concentration of 30 µM, listed as Liriodenine (8)): did not inhibit |
| COc1ccc2c(c1O)-c1c(OC)c(O)cc3c1C(C2)N(C)CC3 (single isomer, unassigned; (+)) [Compound 10, (+)-N-methyllindcarpine] | inactive | > 30 | > 30 | inactive |  |
| COc1cc2c(cc1O)CC1c3c(cc(O)c(OC)c3-2)CCN1C (single isomer, unassigned; (+)) [Compound 16, (+)-boldine] | inactive | > 30 | > 30 | inactive |  |
| COc1cc2c3c(c1O)-c1c(ccc(OC)c1OC)CC3N(C)CC2 (single isomer, unassigned; (+)) [Compound 6, (+)-corydine] | inactive | > 30 | > 30 | inactive |  |
| CN1CCc2cc3c(c4c2C1Cc1ccccc1-4)OCO3 (single isomer, unassigned; (-)) [Compound 7, (−)-roemerine] | unable to inhibit; also recorded: inactive | > 30 | 15 | inactive |  |
| COc1ccc2c(c1O)-c1c3c(cc4c1C(C2)N(C)CC4)OCO3 (single isomer, unassigned; (+)) [Compound 9, (+)-bulbocapnine] | inactive | > 30 | > 30 | inactive |  |
| COc1cc([C@H]2OC[C@@H]3C(c4cc(OC)c(O)c(OC)c4)OC[C@H]23)ccc1O (single isomer, unassigned; (-)) [Compound 5, (−)-medioresinol] |  | 1.3 | 0.1 |  | DYRK1A (IC50 in μM) (DYRK1A): submicromolar |
| COc1cc2c3c(cc4c(O)cccc4c3c1OC)NC2=O [Compound 3, velutinam] |  | 1.5 | 0.6 |  | DYRK1A (IC50 in μM) (DYRK1A): submicromolar |
